Where “and” joins values, the source holds several entries; their conditions need not be identical. Identical values can stand only once. Like-named read-outs stand apart in the source and are kept apart here. Blank lines part the entries; values can stand above or below the compound they belong to.
Assay: UV spectrum: absorption maxima, molar extinction coefficient and K value
Assay type: physicochemical
Details: for εM: in M-1·cm-1 (unit assumed); for UV absorption peaks: does not depend on the solvent nature and pH values

Max ads. (Solvent system Ethanol): 297
Compound: Nc1ccc(C(=O)OCC(O)CO)cc1 (stereo not shown) [Glyceryl PABA, 1,2,3-propanetriol,]

Compound: CCOC(=O)c1ccc(N(CC(C)O)CC(C)O)cc1 (stereo not shown) [Ethyl dihydroxypropyl PABA, Ethyl-4-bis(2-hydroxypropyl)amino benzoic acid]
K value: 119 | Max ads.: 311 | εM (Molar extinction coefficient): 27,000

Max ads. (Solvent system Ethanol): 311
Compound: CCCCC(CC)COC(=O)C=Cc1ccc(OC)cc1 (stereo not shown) [Octyl methoxycinnamate, 2-ethylhexyl-p-methoxycinnamate]

Max ads. (Solvent system Ethanol): 306
Compound: CC1CC(OC(=O)c2ccccc2O)CC(C)(C)C1 (stereo not shown) [Homosalate, 3,3,5-trimethyl cyclohexyl-2-h drox benzoate]

Max ads. (Solvent system Ethanol): 311
Compound: CCCCC(CC)COC(=O)c1ccc(N(C)C)cc1 (stereo not shown) [Octyl dimethyl PABA, 2-ethylbexyl p-dimethylaminobenzoate]

Compound: Diethanolamine methoxy hydroxycinnamate [DEA methoxycinnamate]
K value: 79

Max ads. (Solvent system Ethanol): 300
Compound: Cc1ccc(C=C2C(=O)C3(C)CCC2C3(C)C)cc1 (stereo not shown) [3-(4-methylbenzylidene)-camphor, 3-(4-methylbenzylidene)-bornan-2-one]

εM (at 216 nm): 19,836 | εM (at 305 nm): 28,044 | εM (at 309 nm): 27,816 | UV absorption peaks: 216 nm and 305 nm and 309 nm | UV absorption peaks (listed as resveratrol): 305 nm and 309 nm
Compound: 3,4,5-trihydroxystilbene [Resveratrol]

Max ads. (0,1 N NaOH): 305
Compound: O=S(=O)(O)c1ccc2nc(-c3ccccc3)[nH]c2c1 [Novantisol, 2-phenyl-benzimidazole-5-sulphonic acid]

Max ads. (Solvent system Ethanol): 358
Compound: COc1ccc(C(=O)CC(=O)c2ccc(C(C)(C)C)cc2)cc1 [Butyl methoxy dibenzoyl methane, 4-t-butyl-4′-methoxydibenzoyl methane]

Max ads. (Solvent system Ethanol): 307
Compound: CCCCC(CC)COC(=O)c1ccccc1O (stereo not shown) [Octyl salicylate, 2-ethylhexyl salicylate]

Max ads. (Solvent system Ethanol): 283
Compound: Nc1ccc(C(=O)O)cc1 [PABA, 4-amino benzoic acid]

Max ads. (Solvent system Ethanol): 345
Compound: CC(C)c1ccc(C(=O)CC(=O)c2ccccc2)cc1 [4-isopropyl dibenzoyl methane, 1-p-cumenyl-3-phenylpropane-1,3-dione]

Source: patent US20040009197A1 (priority 2000, published 2004)
